≈ marks a conversion by molar mass, not a printed value.
How the values were obtained:
[1] = Human Microsome Stability Assay; assay type: in vitro ADME; conditions: 1 μM compound, 0.5 mg/mL liver microsomal protein, 1 mM NADPH, pH 7.4, 37° C., 0-30 minutes; for CLint scaled at 1 µM: human, liver microsomes, read-out: Clearance of Human microsome
Experimental: The human microsomal stability assay is used for early assessment of metabolic stability of compounds of present invention in human liver microsomes. Human liver microsomes (Cat. NO.: 452117, Corning, USA) were pre-incubated with test compound for 10 minutes at 37° C. in 100 mM potassium phosphate buffer, pH 7.4. The reactions were initiated by adding NADPH regenerating system. The final incubation mixtures contained 1 μM compound, 0.5 mg/mL liver microsomal protein, 1 mM MgCl2 and 1 mM NADPH in 100 mM potassium phosphate buffer, pH 7.4. After incubation times of 0, 3, 6, 9, 15 and 30 minutes at 37° C., 300 μL of cold acetonitrile (including internal standard) was added to 100 μL incubation mixture to terminate the reaction. Following precipitation and centrifugation, the amount of compound remaining in the samples were determined by LC-MS/MS. Controls of no NADPH regenerating system at zero and 30 minutes were also prepared and analyzed.

[2] = test system: efflux-deficient E. coli strains; conditions: in words; Bioorganic Chemistry 102 (2020) 104055; cited from earlier work
LPS synthesis pathway = conditions: in words; Bioorganic Chemistry 102 (2020) 104055; cited from earlier work
[3] = test system: Escherichia coli ATCC 25922; assay: Minimal Inhibitory Concentration (MIC) assay, Escherichia coli ATCC 25922; assay type: cell-based; conditions: ATCC25922, 20 h, read-out: MIC Escherichia coli ATCC25922
Method in brief: (§1)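 Broth microdilution in cation-adjusted Mueller Hinton broth with 2-fold serial compound dilutions, inoculum 5×10^5 CFU/mL. Plates incubated 20 h at 35 °C in ambient air. MIC (μg/mL) is the lowest concentration preventing visible growth; K. pneumoniae 43816 is a rifampin-resistant mutant.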

[4] = test system: Klebsiella pneumonia ATCC 43816; assay: Minimal Inhibitory Concentration (MIC) assay, Klebsiella pneumonia ATCC 43816; assay type: cell-based; conditions: Klebsiella pneumoniae, ATCC43816, 20 h, read-out: MIC Klebsiella pneumoniae ATCC43816
Method in brief: as §1

SMILES	CLint scaled at 1 µM [1] [mL/min/kg]	antibiotic activity against efflux-deficient E. coli strains [2]	LPS synthesis pathway inhibition activity (LPS synthesis pathway)	MIC [3] [µg/mL]	MIC [4] [µg/mL]	Clearance of Human microsome [1] [mL/min/kg]
CC(=O)N1CCc2cc(S(=O)(=O)N3CCN(c4cc(Cl)cc(C(F)(F)F)c4)CC3)ccc21 [Compound F-1, reference compound]	14	displaying antibiotic activity against efflux-deficient E. coli strains	having LPS synthesis pathway inhibition activity	> 24	> 24	
NCCN(CCN)CC(=O)N1CCC(C(F)(F)c2cc(Cl)nc(N3CCN(S(=O)(=O)c4ccc5c(c4)OC[C@@H]4[C@H](CO)OC(=O)N54)CC3)c2)CC1 [Example 052, (3R,3aR)-7-[4-[4-[[1-[2-[bis(2-aminoethyl)amino]acetyl]-4-piperidyl]-difluoro-methyl]-6-chloro-2-pyridyl]piperazin-1-yl]sulfonyl-3-(hydroxymethyl)-3a,4-dihydro-3H-oxazolo[4,3-c][1,4]benzoxazin-1-one]	6.4			0.68 (≈ 0.898 µM)	1.36 (≈ 1.8 µM)	
NCC(=O)N1CCC(C(F)(F)c2cc(Cl)nc(N3CCN(S(=O)(=O)c4ccc5c(c4)OC[C@@H]4[C@H](CO)OC(=O)N54)CC3)c2)CC1 [Example 053, (3R,3aR)-7-[4-[4-[[1-(2-aminoacetyl)-4-piperidyl]-difluoro-methyl]-6-chloro-2-pyridyl]piperazin-1-yl]sulfonyl-3-(hydroxymethyl)-3a,4-dihydro-3H-oxazolo[4,3-c][1,4]benzoxazin-1-one]	12.2			0.61 (≈ 0.909 µM)	0.61 (≈ 0.909 µM)	
NCCC(=O)N1CCC(C(F)(F)c2cc(Cl)nc(N3CCN(S(=O)(=O)c4ccc5c(c4)OC[C@@H]4[C@H](CO)OC(=O)N54)CC3)c2)CC1 [Example 054, (3R,3aR)-7-[4-[4-[[1-(3-aminopropanoyl)-4-piperidyl]-difluoro-methyl]-6-chloro-2-pyridyl]piperazin-1-yl]sulfonyl-3-(hydroxymethyl)-3a,4-dihydro-3H-oxazolo[4,3-c][1,4]benzoxazin-1-one]	6.4			0.62 (≈ 0.905 µM)	0.62 (≈ 0.905 µM)	
NCCN1CCC(C(F)(F)c2cc(Cl)nc(N3CCN(S(=O)(=O)c4ccc5c(c4)OC[C@@H]4[C@H](CO)OC(=O)N54)CC3)c2)CC1 [Example 055, (3R,3aR)-7-[4-[4-[[1-(2-aminoethyl)-4-piperidyl]-difluoro-methyl]-6-chloro-2-pyridyl]piperazin-1-yl]sulfonyl-3-(hydroxymethyl)-3a,4-dihydro-3H-oxazolo[4,3-c][1,4]benzoxazin-1-one]	7.8			0.3 (≈ 0.457 µM)	0.3 (≈ 0.457 µM)	
NCC(=O)NCC(=O)N1CCC(C(F)(F)c2cc(Cl)nc(N3CCN(S(=O)(=O)c4ccc5c(c4)OC[C@@H]4[C@H](CO)OC(=O)N54)CC3)c2)CC1 [Example 057, N-[2-[4-[[2-[4-[[(3R,3aR)-3-(hydroxymethyl)-1-oxo-3a,4-dihydro-3H-oxazolo[4,3-c][1,4]benzoxazin-7-yl]sulfonyl]piperazin-1-yl]-6-chloro-4-pyridyl]-difluoro-methyl]-1-piperidyl]-2-oxo-ethyl]-2-amino-acetamide]	11.3			0.66 (≈ 0.906 µM)	0.66 (≈ 0.906 µM)	
C[N@@+]1(CC(N)=O)CCC[C@H]1C(=O)N[C@H]1CC[C@H](C(F)(F)c2cc(Cl)nc(N3CCN(S(=O)(=O)c4ccc5c(c4)OC[C@@H]4[C@H](CN)OC(=O)N54)CC3)c2)CC1 [Example 060, (1S,2S)—N-[4-[[2-[4-[[(3S,3aR)-3-(aminomethyl)-1-oxo-3a,4-dihydro-3H-oxazolo[4,3-c][1,4]benzoxazin-7-yl]sulfonyl]piperazin-1-yl]-6-chloro-4-pyridyl]-difluoro-methyl]cyclohexyl]-1-(2-amino-2-oxo-ethyl)-1-methyl-pyrrolidin-1-ium-2-carboxamide; chloride]				0.51	0.51	6.2
C[N@+]1(CC(N)=O)CCC[C@H]1C(=O)N[C@H]1CC[C@H](C(F)(F)c2cc(Cl)nc(N3CCN(S(=O)(=O)c4ccc5c(c4)OC[C@@H]4[C@H](CN)OC(=O)N54)CC3)c2)CC1 [Example 061, (1R,2S)—N-[4-[[2-[4-[[(3S,3aR)-3-(aminomethyl)-1-oxo-3a,4-dihydro-3H-oxazolo[4,3-c][1,4]benzoxazin-7-yl]sulfonyl]piperazin-1-yl]-6-chloro-4-pyridyl]-difluoro-methyl]cyclohexyl]-1-(2-amino-2-oxo-ethyl)-1-methyl-pyrrolidin-1-ium-2-carboxamide;chloride]				0.68	0.34	6.2
NC(=O)C[N+]1(CCNC(=O)[C@H]2CC[C@H](C(F)(F)c3cc(Cl)nc(N4CCN(S(=O)(=O)c5ccc6c(c5)OC[C@@H]5[C@H](CO)OC(=O)N65)CC4)c3)CC2)CCCC1.[Cl-] [Example 063, 4-[[2-[4-[[(3R,3aR)-3-(hydroxymethyl)-1-oxo-3a,4-dihydro-3H-oxazolo[4,3-c][1,4]benzoxazin-7-yl]sulfonyl]piperazin-1-yl]-6-chloro-4-pyridyl]-difluoro-methyl]-N-[2-[1-(2-amino-2-oxo-ethyl)pyrrolidin-1-ium-1-yl]ethyl]cyclohexanecarboxamide; chloride]	10.2			2	2.01	

— patent US20260308172A1, “TRICYCLIC COMPOUNDS FOR TREATMENT OF BACTERIAL INFECTIONS” (priority 2023, published 2026)
